Columns and labels:
[1] = biological target: SYK (Homo sapiens, UniProt P43405); experiment: SYK enzyme assay, coupled enzyme assay; format: biochemical; conditions: 200 μM ATP, 4 μM poly Gly-Tyr peptide, 30° C.
Experimental: Compounds were screened for their ability to inhibit SYK using a standard coupled enzyme assay (Fox et al., Protein Sci. 1998, 7, 2249). Reactions were carried out in 100 mM HEPES (pH 7.5), 10 mM MgCl2, 25 mM NaCl, 1 mM DTT and 1.5% DMSO. Final substrate concentrations in the assay were 200 μM ATP (Sigma chemical Co.) and 4 μM poly Gly-Tyr peptide (Sigma Chemical Co.). Assays were carried out at 30° C. and 200 nM SYK. Final concentrations of the components of the coupled enzyme system were 2.5 mM phosphoenolpyruvate, 300 μM NADH, 30 μg/ml pyruvate kinase and 10 μg/ml lactate dehydrogenase.
An assay stock buffer solution was prepared containing all of the reagents listed above, with the exception of SYK, DTT, and the test compound of interest of the present invention. 56 μl of the test reaction was placed in a 96 well plate followed by the addition of 1 μl of 2 mM DMSO stock containing the test compound of the present invnetion (final compound concentration 30 μM). The plate was pre-incubated for ˜10 minutes at 30° C. and the reaction initiated by the addition of 10 μl of enzyme (final concentration 25 nM). Rates of reaction were obtained using a BioRad Ultramark plate reader (Hercules, Calif.) over a 5 minute read time at 30° C., and Ki values for the compounds of the present invention were determined according to standard methods.

[2] = biological target: T1, TAK1A-TAB fusion protein (Homo sapiens, UniProt O43318); experiment: TAK-1 inhibition assay, radiometric filter binding assay; format: biochemical; conditions: 50 μM ATP, 12 μM bovine myelin basic protein, 20 nM TAK1A-TAB fusion protein
T1 construct: using 20 nM TAK1A-TAB fusion protein
T1 sequence (O43318 with tags, fused parts or gaps isoform O43318-2 limits assumed): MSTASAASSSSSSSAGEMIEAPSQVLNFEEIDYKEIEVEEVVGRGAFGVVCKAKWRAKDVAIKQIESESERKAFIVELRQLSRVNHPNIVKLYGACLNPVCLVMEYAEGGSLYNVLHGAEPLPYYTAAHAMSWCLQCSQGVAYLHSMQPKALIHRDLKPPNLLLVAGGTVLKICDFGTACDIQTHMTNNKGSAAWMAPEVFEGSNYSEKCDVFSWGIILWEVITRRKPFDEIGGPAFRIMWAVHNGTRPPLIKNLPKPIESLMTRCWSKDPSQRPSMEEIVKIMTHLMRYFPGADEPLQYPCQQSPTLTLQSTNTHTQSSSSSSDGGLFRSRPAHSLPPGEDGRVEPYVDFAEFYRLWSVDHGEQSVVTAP
Experimental: Compounds were screened for their ability to inhibit TAK1A kinase activity using a radiometric filter binding assay. Reactions were carried out in a solution containing Buffer A (100 mM HEPES (pH 7.5), 10 mM MgCl2), 25 mM NaCl, 2 mM DTT, and 1.5% DMSO. Final substrate concentrations in the assay were 50 μM ATP (a mixture of unlabeled ATP (Sigma Chemicals, St Louis, Mo.) and ^33P-labeled ATP (PerkinElmer Life Sciences, Boston, Mass.) for a final specific activity of 50 Ci/mol), and 12 μM bovine myelin basic protein (MBP, Vertex Pharmaceuticals, Cambridge, Mass.). Reactions were carried out at ambient temperature (˜20° C.) using 20 nM TAK1A-TAB fusion protein. Under these conditions the extent of reaction is linear with time for a period of 2 hours.
A test compound of the present invention (1 μL in DMSO) was combined with ATP and Buffer A in a final volume of 47 μL in a 96 well plate. Typically, a 6 point titration was conducted by preparing serial dilutions (from 10 mM compound stocks) with DMSO of the test compounds of the present invention in daughter plates, for final concentrations spanning 0.046 μM to 3.73 μM. The reaction was initiated by the addition of 20 μl of an enzyme stock solution consisting of TAK1A-TAB fusion (described by Sugita, T. et al. in Biochem. Biophys. Res. Comm. 2002, 297, 1277-1281), MBP, Buffer A, NaCl, and DTT. The reaction was allowed to proceed for two hours at ambient temperature, then quenched with an equal volume of 10 mM unlabeled ATP in 10% trichloroacetic acid. A 110 μL aliquot of the quenched reaction was transferred to a Multiscreen PH filter plate (Millipore, Billerica, Mass.) and allowed to incubate at ambient temperature overnight (typically 16-20 hours). Following incubation the filter plates were washed with 3×150 μL aliquots of 5% trichloroacetic acid using a modified Biotek Elx405 plate washer. A 70 μL aliquot of Microscint 20 scintillation fluid (PerkinElmer) was added to each well, and the plate was then sealed and read on a TopCount NXT microplate scintillation counter (PerkinElmer). The Ki values were determined from the rate data as a function of inhibitor concentration.

Row | Ki [1] [nM] | Ki [2] [nM] | SMILES
1 | 1000 to 12500 | – | Fc1cccc(-c2cnoc2-c2c[nH]c3ncc(Br)cc23)c1F [Compound 37, 5-Bromo-3-[4-(2,3-difluoro-phenyl)-isoxazol-5-yl]-1H-pyrrolo[2,3-b]pyridine]
2 | 1000 to 12500 | – | COc1cnc2[nH]cc(-c3oncc3-c3cccc(F)c3F)c2c1 [Compound 38, 3-[4-(2,3-Difluoro-phenyl)-isoxazol-5-yl]-5-methoxy-1H-pyrrolo[2,3-b]pyridine]
3 | 1000 to 12500 | – | Fc1c(Cl)cccc1-c1cnoc1-c1c[nH]c2ncccc12 [Compound 42, 3-[4-(3-Chloro-2-fluoro-phenyl)-isoxazol-5-yl]-1H-pyrrolo[2,3-b]pyridine]
4 | 200 to 1000 | – | Oc1cnc2[nH]cc(-c3oncc3-c3cccc(F)c3F)c2c1 [Compound 43, 3-[4-(2,3-Difluoro-phenyl)-isoxazol-5-yl]-1H-pyrrolo[2,3-b]pyridin-5-ol]
5 | 1000 to 12500 | 200 to 1000 | CN(C)c1cccc(-c2cnc3[nH]cc(-c4oncc4-c4cccc(F)c4F)c3c2)c1 [Compound 61, (3-{3-[4-(2,3-Difluoro-phenyl)-isoxazol-5-yl]-1H-pyrrolo[2,3-b]pyridin-5-yl}-phenyl)-dimethyl-amine]
6 | 1000 to 12500 | – | CC(=O)Nc1cccc(-c2cnc3[nH]cc(-c4oncc4-c4cccc(F)c4F)c3c2)c1 [Compound 65, N-(3-{3-[4-(2,3-Difluoro-phenyl)-isoxazol-5-yl]-1H-pyrrolo[2,3-b]pyridin-5-yl}-phenyl)-acetamide]
7 | 200 to 1000 | – | O=c1ccc(-c2cnc3[nH]cc(-c4oncc4-c4cccc(F)c4F)c3c2)c[nH]1 [Compound 67, 5-{3-[4-(2,3-Difluoro-phenyl)-isoxazol-5-yl]-1H-pyrrolo [2,3-b]pyridin-5-yl}-1H-pyridin-2-one]
8 | 200 to 1000 | < 200 | Fc1cccc(-c2cnoc2-c2c[nH]c3ncc(-c4ccc(N5CCNCC5)cc4)cc23)c1F [Compound 68, 3-[4-(2,3-Difluoro-phenyl)-isoxazol-5-yl]-5-(4-piperazin-1-yl-phenyl)-1H-pyrrolo[2,3-b]pyridine]
9 | 200 to 1000 | < 200 | CN1CCN(c2ccc(-c3cnc4[nH]cc(-c5oncc5-c5cccc(F)c5F)c4c3)cc2)CC1 [Compound 70, 3-[4-(2,3-Difluoro-phenyl)-isoxazol-5-yl]-5-[4-(4-methyl-piperazin-1-yl)-phenyl]-1H-pyrrolo[2,3-b]pyridine methanesulfonate]
10 | 1000 to 12500 | < 200 | CN1CCN(c2ccc(-c3cnc4[nH]cc(-c5oncc5-c5cccc(F)c5F)c4c3)cn2)CC1 [Compound 71, 3-[4-(2,3-Difluoro-phenyl)-isoxazol-5-yl]-5-[6-(4-methyl-piperazin-1-yl)-pyridin-3-yl]-1H-pyrrolo[2,3-b]pyridine]
11 | 1000 to 12500 | – | Fc1cccc(-c2cnoc2-c2c[nH]c3ncc(-c4ccccn4)cc23)c1F [Compound 73, 3-(4-(2,3-Difluoro-phenyl)-isoxazol-5-yl)-5-pyridin-2-yl-1H-pyrrolo[2,3-b]pyridine]
12 | 1000 to 12500 | – | Fc1cccc(-c2cnoc2-c2c[nH]c3ncc(-c4c[nH]cn4)cc23)c1F [Compound 76, 3-[4-(2,3-Difluoro-phenyl)-isoxazol-5-yl]-5-(3H-imidazol-4-yl)-1H-pyrrolo[2,3-b]pyridine]
13 | 200 to 1000 | 200 to 1000 | Fc1cccc(-c2cnoc2-c2c[nH]c3ncc(-c4cnc5[nH]ccc5c4)cc23)c1F [Compound 77, 3-[4-(2,3-Difluoro-phenyl)-isoxazol-5-yl]-1H,1′H-[5,5′]bi[pyrrolo[2,3-b]pyridinyl]]
14 | 1000 to 12500 | – | CN(C)Cc1ccnc(-c2cnc3[nH]cc(-c4oncc4-c4cccc(F)c4F)c3c2)c1 [Compound 82, (2-{3-[4-(2,3-Difluoro-phenyl)-isoxazol-5-yl]-1H-pyrrolo[2,3-b]pyridin-5-yl}-pyridin-4-ylmethyl)-dimethyl-amine]
15 | 1000 to 12500 | 200 to 1000 | CN(C)Cc1ccc(-c2cnc3[nH]cc(-c4oncc4-c4cccc(F)c4F)c3c2)nc1 [Compound 84, (6-{3-[4-(2,3-Difluoro-phenyl)-isoxazol-5-yl]-1H-pyrrolo[2,3-b]pyridin-5-yl}-pyridin-3-ylmethyl)-dimethyl-amine]
16 | 200 to 1000 | – | Nc1cccc(-c2cnc3[nH]cc(-c4oncc4-c4cccc(F)c4F)c3c2)c1 [Compound 86, 3-{3-[4-(2,3-Difluoro-phenyl)-isoxazol-5-yl]-1H-pyrrolo [2,3-b]pyridin-5-yl}-phenylamine]
17 | 1000 to 12500 | – | CN(C)c1ccc(-c2cnc3[nH]cc(-c4oncc4-c4cccc(F)c4F)c3c2)cc1 [Compound 88, (4-{3-[4-(2,3-Difluoro-phenyl)-isoxazol-5-yl]-1H-pyrrolo[2,3-b]pyridin-5-yl}-phenyl)-dimethyl-amine]
18 | 200 to 1000 | – | Nc1ccc(-c2cnc3[nH]cc(-c4oncc4-c4cccc(F)c4F)c3c2)cc1 [Compound 90, 4-{3-[4-(2,3-Difluoro-phenyl)-isoxazol-5-yl]-1H-pyrrolo [2,3-b]pyridin-5-yl}-phenylamine]
19 | 1000 to 12500 | – | CN(C)Cc1ccc(-c2cnc3[nH]cc(-c4oncc4-c4cccc(F)c4F)c3c2)cc1 [Compound 91, (4-{3-[4-(2,3-Difluoro-phenyl)-isoxazol-5-yl]-1H-pyrrolo[2,3-b]pyridin-5-yl}-benzyl)-dimethyl-amine]
20 | 1000 to 12500 | – | Fc1cccc(-c2cnoc2-c2c[nH]c3ncc(-c4ccc(CN5CCCC5)cc4)cc23)c1F [Compound 93, 3-[4-(2,3-Difluoro-phenyl)-isoxazol-5-yl]-5-(4-pyrrolidin-1-ylmethyl-phenyl)-1H-pyrrolo[2,3-b]pyridine]
21 | 1000 to 12500 | 200 to 1000 | CS(=O)(=O)Nc1ccc(-c2cnc3[nH]cc(-c4oncc4-c4cccc(F)c4F)c3c2)cc1 [Compound 98, N-(4-{3-[4-(2,3-Difluoro-phenyl)-isoxazol-5-yl]-1H-pyrrolo[2,3-b]pyridin-5-yl}-phenyl)-methane sulfonamide]
22 | 200 to 1000 | 200 to 1000 | Clc1cccc(-c2cnoc2-c2c[nH]c3ncc(-c4cccnc4)cc23)c1Cl [Compound 99, 3-[4-(2,3-Dichloro-phenyl)-isoxazol-5-yl]-5-pyridin-3-yl-1H-pyrrolo[2,3-b]pyridine]
23 | 1000 to 12500 | 200 to 1000 | CN(C)c1ccc(-c2cnc3[nH]cc(-c4nncn4-c4cccc(F)c4F)c3c2)cc1 [Compound 106, (4-{3-[4-(2,3-Difluoro-phenyl)-4H-[1,2,4]triazol-3-yl]-1H-pyrrolo[2,3-b]pyridin-5-yl}-phenyl)-dimethyl-amine]
24 | 1000 to 12500 | 200 to 1000 | Fc1cccc(-c2cnoc2-c2c[nH]c3ncc(/C=C/n4cncn4)cc23)c1F [Compound 133, 3-[4-(2,3-Difluoro-phenyl)-isoxazol-5-yl]-5-(2-[1,2,4]triazol-1-yl-vinyl)-1H-pyrrolo[2,3-b]pyridine]
25 | 1000 to 12500 | – | Cc1noc(-c2c[nH]c3ncccc23)c1-c1cccc(F)c1F [Compound 134, 3-[4-(2,3-Difluoro-phenyl)-3-methyl-isoxazol-5-yl]-1H-pyrrolo[2,3-b]pyridine]
